Laboratory results as given in patent publication US12116358B2, “Substituted indoles and methods of use thereof” (EPIZYME, INC., priority 2018, dated 2024).
Read-outs that look alike come from different tables or passages of the source.

Legend:
H3K36me3 in A549 cells = assay: In-Cell Western (ICW) assay of SETD2 inhibitors (A549 assay); format: cell-based, human; conditions: A549 cells, read-out: SETD2 A549
Method in brief: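 A549 cells seeded at 4,000/well onto compound and incubated 3 days at 37° C. Methanol-fixed cells stained overnight at 4° C with anti-H3K36me3 (1:1000), then IRDye 800CW secondary with DRAQ5 DNA counterstain. Plates read by Licor imaging at 700 and 800 channels.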

SETD2(1434-1711) = molecular target: T1, SETD2(1434-1711) (Homo sapiens, UniProt Q9BYW2); assay: SETD2 (1434-1711) assay; format: biochemical; conditions: read-out: SETD2 (1434-1711)
T1 construct: SETD2 (1434-1711) Assay; catalogue N/A
T1 sequence (Q9BYW2 1434-1711): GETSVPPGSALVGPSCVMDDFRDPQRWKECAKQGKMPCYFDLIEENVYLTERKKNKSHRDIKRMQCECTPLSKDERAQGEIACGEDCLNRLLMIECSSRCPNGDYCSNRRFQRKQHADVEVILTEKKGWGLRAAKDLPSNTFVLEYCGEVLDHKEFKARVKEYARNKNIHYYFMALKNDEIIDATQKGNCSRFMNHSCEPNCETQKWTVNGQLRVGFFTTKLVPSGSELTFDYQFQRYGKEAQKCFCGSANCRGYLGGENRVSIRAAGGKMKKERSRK

Row | SMILES | IC50 (H3K36me3 in A549 cells; Homo sapiens) | IC50 (SETD2(1434-1711)) | IC50 (H3K36me3 in A549 cells)
1 | Cc1ccc(F)c2cc(C(=O)N[C@@H]3CCC[C@H](N4CCN5C(=O)N(C)C[C@H]5C4)C3)[nH]c12 [compound 1126] | 80 nM | 20 nM | 
2 | Cc1ccc(F)c2cc(C(=O)N[C@@H]3CCC[C@@H](N4CCN5C(=O)N(C)C[C@@H]5C4)C3)[nH]c12 [compound 1127] | 1300 nM | 400 nM | 
3 | Cc1ccc(F)c2cc(C(=O)N[C@@H]3CCC[C@@H](N4CCN5C(=O)N(C)C[C@H]5C4)C3)[nH]c12 [compound 1128] | 1600 nM | 300 nM | 
4 | CCN(C(=O)CO)C1CCN(C2CCCC(NC(=O)c3cc4c(F)ccc(C)c4[nH]3)C2)C1 (centres unmarked) [compound 1129] |  | 10 nM | 100 nM
5 | CCN(C(=O)CO)C1CCN(C2CCCC(NC(=O)c3cc4c(F)ccc(C)c4[nH]3)C2)C1 (centres unmarked) [compound 1130] |  | 4000 nM | > 2000 nM
6 | CCN(C1CCN(C2CCCC(NC(=O)c3cc4c(F)ccc(C)c4[nH]3)C2)C1)S(C)(=O)=O (centres unmarked) [compound 1131] |  | 6 nM | 40 nM
7 | CCN(C1CCN(C2CCCC(NC(=O)c3cc4c(F)ccc(C)c4[nH]3)C2)C1)S(C)(=O)=O (centres unmarked) [compound 1132] |  | 2300 nM | > 2000 nM
8 | Cc1ccc(F)c2cc(C(=O)NC3CCCC(N4CCN5C(=O)OCC5C4)C3)[nH]c12 (centres unmarked) [compound 1134] |  | 1000 nM | > 2000 nM
9 | Cc1ccc(F)c2cc(C(=O)NC3CCCC(N4CCN5C(=O)OCC5C4)C3)[nH]c12 (centres unmarked) [compound 1135] |  | 20 nM | 70 nM
10 | Cc1ccc(F)c2cc(C(=O)NC3CCCC(N4CCN5C(=O)OCC5C4)C3)[nH]c12 (centres unmarked) [compound 1136] |  | 700 nM | > 2000 nM
11 | CC(=O)N1CCN(C2CCCC(NC(=O)c3cc4c(F)ccc(C)c4[nH]3)C2)C2(CC2)C1 (centres unmarked) [compound 1137] |  | 2000 nM | > 2000 nM
12 | Cc1ccc(F)c2cc(C(=O)NC3CCCC(N4CCN5C(=O)COCC5C4)C3)[nH]c12 (centres unmarked) [compound 1138] |  | 10 nM | 20 nM
13 | Cc1ccc(F)c2cc(C(=O)NC3CCCC(N4CCN5C(=O)COCC5C4)C3)[nH]c12 (centres unmarked) [compound 1139] |  | 500 nM | 1700 nM
14 | Cc1ccc(F)c2cc(C(=O)NC3CCCC(N4CCN5C(=O)COCC5C4)C3)[nH]c12 (centres unmarked) [compound 1140] |  | 50 nM | 100 nM
15 | Cc1ccc(F)c2cc(C(=O)NC3CCCC(N4CCN5C(=O)COCC5C4)C3)[nH]c12 (centres unmarked) [compound 1141] |  | 400 nM | 1300 nM
16 | Cc1ccc(F)c2cc(C(=O)NC3CCCC(N4CCn5c(nn(C)c5=O)C4)C3)[nH]c12 (centres unmarked) [compound 1142] |  | 4800 nM | > 2000 nM
17 | Cc1ccc(F)c2cc(C(=O)N[C@@H]3CCC[C@@H](N4CCn5c(cccc5=O)C4)C3)[nH]c12 [compound 1143] |  | 1900 nM | > 2000 nM
18 | Cc1ccc(F)c2cc(C(=O)NC3CCCC(N4CCC(N(C)C(=O)C(C)(C)O)C4)C3)[nH]c12 (centres unmarked) [compound 1145] |  | 1800 nM | > 2000 nM
19 | Cc1ccc(F)c2cc(C(=O)NC3CCCC(N4CCC(N(C)C(=O)C(C)(C)O)C4)C3)[nH]c12 (centres unmarked) [compound 1146] |  | 40 nM | 200 nM
20 | Cc1ccc(F)c2cc(C(=O)NC3CCCC(N4CCC(N(C)C(=O)C(C)(C)O)C4)C3)[nH]c12 (centres unmarked) [compound 1147] |  | 1200 nM | > 2000 nM
21 | CC(=NC#N)N1CCN(C2CCCC(NC(=O)c3cc4c(F)ccc(C)c4[nH]3)C2)CC1 (centres unmarked) [compound 1148] |  | 900 nM | > 2000 nM
22 | Cc1ccc(F)c2cc(C(=O)NC3CCCC(N4CCC(N(CCO)S(C)(=O)=O)C4)C3)[nH]c12 (centres unmarked) [compound 1150] |  | 4200 nM | > 2000 nM
23 | Cc1ccc(F)c2cc(C(=O)NC3CCCC(N4CCC(N(CCO)S(C)(=O)=O)C4)C3)[nH]c12 (centres unmarked) [compound 1151] |  | 5800 nM | > 2000 nM
24 | CNC(=NC#N)N1CCN(C2CCCC(NC(=O)c3cc4c(F)ccc(C)c4[nH]3)C2)CC1 (centres unmarked) [compound 1152] |  | 1100 nM | > 2000 nM
25 | Cc1cccc2cc(C(=O)NC(C)c3ccccc3Cl)[nH]c12 (centres unmarked) [compound 1154] |  | 6000 nM | > 25000 nM
